Results as given in article PMC10107917 (ACS Medicinal Chemistry Letters, 2023).
Like-named read-outs stand apart in the source and are kept apart here. Bridge positions count the residues as written; N and C are the ends. Peptide text beside a SMILES is read from it.

Molecular target: T1, human recombinant furin (Homo sapiens, UniProt P09958)
T1 construct: Soluble human recombinant furin was kindly gifted; gift of Dr Anna Kwiatkowska (group of Prof. Robert Day, Université de Sherbrooke)
Type: biochemical
Conditions: for Ki / IC50: ± SEM; for Ki: Cheng-Prusoff from IC50, competitive mode assumed, Km 1.90 µM; for IC50: triplicate, substrate 20 µM
Description: Initially, the activities of the furin inhibitors were screened at three concentrations, i.e., 2.4, 24.0, and 77.0 nM (Figure 4). For selected peptides 3, 5, and 6 and the reference FI, the inhibitory constants (Ki) were calculated (Table 2). Except for the bicyclic peptide 4, all of the inhibitors almost completely abolished the enzyme activity at the highest tested concentration. Peptide 4 was explicitly the weakest inhibitor in the series, also when compared with its monocyclic disulfide-bridged counterpart 1. When the inhibitory activities were analyzed at the lowest tested concentration (2.4 nM), three peptides (3, 5, and 6) reduced the furin activity to less than 50% of its initial noninhibited activity. All of them have an additional basic amino acid at their N-termini (in MD simulations this is depicted as a residue with number “0”). […] Such close inhibitory potency was not observed in the case of an analogous pair, i.e., 2 and 5. […] The two disulfide-bridged peptides, FI and 1, differ only at the P4 position, having Lys and Arg, respectively. […]
The IC50 values (inhibitor concentrations giving 50% inhibition of enzyme activity) were calculated from plots of enzyme activity (% of control sample) versus the inhibitor’s concentration using a four-parameter fit model (GraFit 5.0.12 Erithacus Software Ltd.). The IC50 values were determined from triplicate measurements with at least seven different inhibitor concentrations. The K i values […] were calculated using the Cheng-Prusoff equation, assuming the competitive mode of inhibition, according to the following relationship: IC50 = K i(1+S/Km). All measurements were performed using a Fluostar Omega microplate reader (BMG Labtech, Germany) and 96-well black plates (BRAND, Germany). Recombinant human matriptase-1/ST14 catalytic domain was purchased from R&D Systems, USA. Recombinant human matriptase-2 was obtained from Enzo Life Sciences, Switzerland.
Soluble human recombinant furin was kindly gifted by Dr Anna Kwiatkowska (group of Prof. Robert Day from Université de Sherbrooke).4
The following assay buffers were used: […] (matriptase-1 and matriptase-2), pH 7.5 100 mM HEPES with 1 mM CaCl 2 and 1.8 mg/mL BSA (furin). The substrates used in the assays were as follows: for matriptase-1 and matriptase-2 Boc-Gln-Ala-Arg-AMC (Pepta Nova, Germany) in final concentration of 5 µM, for furin […] (Pepta Nova, Germany) in final concentration of 20 µM. Enzymes concentrations were as follows: 1.25 ng/mL of matriptase-1, 1.51 U/mL for matriptase-2, and 1.1 nM for furin. In the case of matriptase-1 and matripase-2 concentrations were calculated according to information provided by the suppliers.
In short, the tested compounds were added to the appropriate protease in different concentrations and incubated in an assay buffer at 37 °C for 30 min. After this time, a solution of appropriate substrate was added. Reactions were monitored for at least 40 min at 37 °C. The final volume in each well was 200 µL for matriptases and 100 µL for furin. Measurements were carried out using excitation and emission wavelengths of 380 nm and 450 nm. The percentage inhibition of an enzyme was calculated relative to the control sample without an inhibitor. The K m value for furin substrate was determined by incubating the enzyme with its substrate in various concentrations as recommended.5 Plots of the substrate concentration versus the initial reaction velocity were analyzed according to Michaelis-Menten equation using GraFit 5.0.12 Erithacus Software Ltd. A double reciprocal (Lineweaver-Burk) plot was used to determine the Michaelis constant K m value. K m value determined for furin was 1.90 µM.
Total furin-like enzyme inhibition/activity in PANC-1 cell lysates
Cell line and cell culture. The pancreatic cancer cell line, PANC-1, was obtained from the American Type Culture Collection, ATCC (Manassas, USA). […]

T1 sequence (P09958 108-715 limits assumed): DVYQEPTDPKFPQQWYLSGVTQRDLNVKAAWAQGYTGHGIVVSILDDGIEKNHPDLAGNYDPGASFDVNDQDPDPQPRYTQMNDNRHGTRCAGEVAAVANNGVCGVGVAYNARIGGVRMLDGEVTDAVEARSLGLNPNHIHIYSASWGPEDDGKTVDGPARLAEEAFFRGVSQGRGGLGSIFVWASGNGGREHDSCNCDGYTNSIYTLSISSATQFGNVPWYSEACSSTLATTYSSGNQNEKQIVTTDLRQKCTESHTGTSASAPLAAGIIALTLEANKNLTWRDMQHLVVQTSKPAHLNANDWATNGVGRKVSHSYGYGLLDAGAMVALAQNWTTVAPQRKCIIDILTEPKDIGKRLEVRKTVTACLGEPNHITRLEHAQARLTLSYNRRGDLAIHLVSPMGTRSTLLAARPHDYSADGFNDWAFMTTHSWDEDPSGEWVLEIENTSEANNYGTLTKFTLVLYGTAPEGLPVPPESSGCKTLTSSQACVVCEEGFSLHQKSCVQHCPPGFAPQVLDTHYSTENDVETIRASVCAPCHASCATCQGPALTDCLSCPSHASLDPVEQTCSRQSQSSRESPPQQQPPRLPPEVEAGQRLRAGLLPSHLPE

Structure (SMILES) | Ki | IC50 | furin activity versus control with no inhibitor added (inhibitor 2.4 nM) | furin activity versus control with no inhibitor added (inhibitor 24.0 nM) | furin activity versus control with no inhibitor added (inhibitor 77.0 nM (highest tested concentration))
CC[C@H](C)[C@@H]1NC(=O)[C@@H]2CCCN2C(=O)[C@@H]2CCCN2C(=O)[C@H]([C@@H](C)CC)NC(=O)[C@H](CO)NC(=O)[C@H](CCCCN)NC(=O)[C@H](CCCCN)NC(=O)[C@@H](NC(=O)[C@H](CCCNC(=N)N)NC(=O)[C@H](CCCNC(=N)N)NC(=O)[C@@H](N)CCCNC(=N)N)CSSC[C@@H](C(=O)N[C@@H](Cc2ccccc2)C(N)=O)NC1=O [inhibitor 3, Arg-Arg-Arg-Cys(&)-Lys-Lys-Ser-Ile-Pro-Pro-Ile-Cys(&)-Phe-NH2] (H-RRRCKKSIPPICF-NH2; disulfide 4-12) | 0.27 ± 0.02 nM | 3.07 ± 0.2 nM |  |  | 
CC[C@H](C)[C@@H]1NC(=O)[C@@H]2CCCN2C(=O)[C@@H]2CCCN2C(=O)[C@H]([C@@H](C)CC)NC(=O)[C@H](CO)NC(=O)[C@H](CCCCN)NC(=O)[C@H](CCCCN)NC(=O)[C@@H]2CSSC[C@H](NC1=O)C(=O)N[C@@H](Cc1ccccc1)C(=O)N[C@@H](CCCNC(=N)N)C(=O)N[C@@H](CCCNC(=N)N)C(=O)N[C@@H](CCCNC(=N)N)C(=O)N2 [inhibitor 6, &^1Arg-Arg-Arg-Cys(&^2)-Lys-Lys-Ser-Ile-Pro-Pro-Ile-Cys(&^2)-Phe&^1] (cyclo(RRRCKKSIPPICF); disulfide 4-12) | 0.25 ± 0.01 nM | 2.91 ± 0.17 nM |  |  | 
CC[C@H](C)[C@@H]1NC(=O)[C@@H]2CCCN2C(=O)[C@@H]2CCCN2C(=O)[C@H]([C@@H](C)CC)NC(=O)[C@H](CO)NC(=O)[C@H](CCCCN)NC(=O)[C@H](CCCCN)NC(=O)[C@@H](NC(=O)[C@H](CCCNC(=N)N)NC(=O)[C@@H](N)CCCCN)CSSC[C@@H](C(=O)N[C@@H](Cc2ccccc2)C(N)=O)NC1=O [FI, Lys-Arg-Cys(&)-Lys-Lys-Ser-Ile-Pro-Pro-Ile-Cys(&)-Phe-NH2, reference compound] (H-KRCKKSIPPICF-NH2; disulfide 3-11; N-terminus assumed) | 0.38 ± 0.02 nM | 4.42 ± 0.22 nM | 66.76% | 9.86% | 0.31%
CC[C@H](C)[C@@H]1NC(=O)[C@@H]2CCCN2C(=O)[C@@H]2CCCN2C(=O)[C@H]([C@@H](C)CC)NC(=O)[C@H](CO)NC(=O)[C@H](CCCCN)NC(=O)[C@H](CCCCN)NC(=O)[C@@H]2CSSC[C@H](NC1=O)C(=O)N[C@@H](Cc1ccccc1)C(=O)N[C@@H](CCCCN)C(=O)N[C@@H](CCCNC(=N)N)C(=O)N[C@@H](CCCNC(=N)N)C(=O)N2 [inhibitor 5, &^1Lys-Arg-Arg-Cys(&^2)-Lys-Lys-Ser-Ile-Pro-Pro-Ile-Cys(&^2)-Phe&^1] (cyclo(KRRCKKSIPPICF); disulfide 4-12) | 0.21 ± 0.01 nM | 2.41 ± 0.12 nM |  |  | 
